Like-named read-outs stand apart in the source and are kept apart here.
Experiments:
[1] = biological target: T1, Human recombinant DHX9 protein (Homo sapiens, UniProt Q08211); experiment: DHX9 ATPase assay (ADP-Glo biochemical assay); settings: for DHX9 Biochemical Max Inhibition: maximum inhibition in ATPase assay, 10 μM Aurintricarboxylic acid = 100%
T1 construct: purchased Viva

[2] = tested on: DHX9 (circBRIP1 mRNA in HCT116 cells); experiment: DHX9 circBRIP1 Cellular Target Engagement SYBR Green Assay; format: cell-based; settings: Homo sapiens, HCT-116, circBRIP1 qPCR, 72 hours
[3] = read-out: DHX9 Biochemical Inflection Point

T1 sequence (Q08211 whole entry): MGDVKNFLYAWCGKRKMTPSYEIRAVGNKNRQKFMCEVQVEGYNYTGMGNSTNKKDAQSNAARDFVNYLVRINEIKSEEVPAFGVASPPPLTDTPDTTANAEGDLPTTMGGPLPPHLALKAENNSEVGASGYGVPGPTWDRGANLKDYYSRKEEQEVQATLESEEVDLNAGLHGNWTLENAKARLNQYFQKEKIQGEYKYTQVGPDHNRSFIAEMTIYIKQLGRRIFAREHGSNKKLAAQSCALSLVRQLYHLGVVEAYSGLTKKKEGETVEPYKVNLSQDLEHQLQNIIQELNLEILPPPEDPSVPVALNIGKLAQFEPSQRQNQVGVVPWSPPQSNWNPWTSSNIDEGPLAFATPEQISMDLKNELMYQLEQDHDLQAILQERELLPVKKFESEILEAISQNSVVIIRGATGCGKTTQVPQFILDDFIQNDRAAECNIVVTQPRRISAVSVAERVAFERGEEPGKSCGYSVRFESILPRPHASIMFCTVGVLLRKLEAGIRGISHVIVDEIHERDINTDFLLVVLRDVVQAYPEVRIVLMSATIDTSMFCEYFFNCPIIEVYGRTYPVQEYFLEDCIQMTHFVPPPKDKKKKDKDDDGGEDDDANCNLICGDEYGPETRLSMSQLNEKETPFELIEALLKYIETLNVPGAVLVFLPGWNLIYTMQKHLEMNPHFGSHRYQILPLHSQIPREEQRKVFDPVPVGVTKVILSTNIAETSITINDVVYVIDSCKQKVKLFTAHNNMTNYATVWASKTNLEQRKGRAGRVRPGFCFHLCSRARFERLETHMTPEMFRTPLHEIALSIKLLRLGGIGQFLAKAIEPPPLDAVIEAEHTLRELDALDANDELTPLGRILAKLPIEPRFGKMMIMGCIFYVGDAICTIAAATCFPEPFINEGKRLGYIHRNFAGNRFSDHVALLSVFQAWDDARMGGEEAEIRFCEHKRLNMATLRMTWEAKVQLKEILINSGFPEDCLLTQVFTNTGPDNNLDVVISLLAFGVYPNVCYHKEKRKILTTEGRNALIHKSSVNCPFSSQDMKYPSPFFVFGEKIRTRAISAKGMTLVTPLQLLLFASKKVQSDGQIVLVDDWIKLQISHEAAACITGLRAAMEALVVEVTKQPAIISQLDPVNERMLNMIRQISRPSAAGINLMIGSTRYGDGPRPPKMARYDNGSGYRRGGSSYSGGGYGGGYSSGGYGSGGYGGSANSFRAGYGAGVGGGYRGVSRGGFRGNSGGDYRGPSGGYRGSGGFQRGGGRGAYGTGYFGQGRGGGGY

| Compound | DHX9 Biochemical Max Inhibition [1] [%] | IC50 [1, 3] [µM] | EC50 [2] [µM] | IC50 [1] [µM] |
| --- | --- | --- | --- | --- |
| CC(=O)c1ccc(S(=O)(=O)Nc2ccc(C(=O)Nc3cccc(NS(C)(=O)=O)c3)cc2)cc1 [Example 20] | 72 | 0.664 | > 30 |  |
| CS(=O)(=O)Nc1cccc(NC(=O)c2cc(C(=O)Nc3ccccc3)cs2)c1 [Example 102, N2-(3-(methylsulfonamido)phenyl)-N4-phenylthiophene-2,4-dicarboxamide] | 72.5 |  | 18.9 | 0.159 |
| CS(=O)(=O)Nc1cccc(NC(=O)c2nc(-c3ccccn3)c[nH]2)c1 [Example 90] | 61.2 | 19 | > 30 |  |
| CS(=O)(=O)Nc1cccc(NC(=O)c2ccn(-c3c(F)cccc3F)n2)c1 [Example 12] | 83.3 | 0.355 | > 30 |  |
| Cc1cccnc1-c1csc(C(=O)Nc2cccc(NS(C)(=O)=O)c2)c1 [Example 83] | 73.1 | 0.0173 | 0.917 |  |
| CC(=O)Nc1cccnc1-c1csc(C(=O)Nc2cccc(NS(C)(=O)=O)c2)c1 [Example 94] | 71.2 | 0.125 | > 30 |  |
| CS(=O)(=O)Nc1cccc(NC(=O)c2cc(-c3ccccc3)c(C#N)s2)c1 [Example 100, 5-cyano-N-(3-(methylsulfonamido)phenyl)-4-phenylthiophene-2-carboxamide] | 65.8 | 0.333 | 28.5 |  |
| CS(=O)(=O)Nc1cccc(NC(=O)c2cc(-c3cc(N)ccn3)cs2)c1 [Example 86] | 71.1 | 0.0453 | 19.5 |  |
| CS(=O)(=O)Nc1cccc(NC(=O)c2cc(-c3ccc(F)cc3)cs2)c1 [Example 53] | 70.4 | 0.188 | 22.7 |  |
| CS(=O)(=O)Nc1cc(C=O)cc(NC(=O)c2cc(-c3ccccc3)cs2)c1 [Example 159, N-(3-formyl-5-(methylsulfonamido)phenyl)-4-phenylthiophene-2-carboxamide] | 50.7 | 0.69 | > 10 |  |
| CC(C)(C)OC(=O)Nc1cccc(-c2csc(C(=O)Nc3cccc(NS(C)(=O)=O)c3)c2)c1 [Example 72] | 64.4 | 0.494 | > 30 |  |
| CS(=O)(=O)Nc1cccc(NC(=O)c2cnn(-c3ccccn3)c2)c1 [Example 41] | 61.2 | 0.285 | 27.4 |  |
| CS(=O)(=O)Nc1cccc(NC(=O)c2cc(-c3cccs3)ccn2)c1 [Example 44] | 47.2 | 6.51 | > 30 |  |
| CCS(=O)(=O)Nc1cccc(NC(=O)c2cc(-c3ccccc3)cs2)c1 [Example 96, N-(3-(ethylsulfonamido)phenyl)-4-phenylthiophene-2-carboxamide] | 59.6 | 0.0899 | 22.2 |  |
| CS(=O)(=O)Nc1cccc(NC(=O)c2cc(-c3ccccc3)c(CO)s2)c1 [Example 153, 5-(hydroxymethyl)-N-(3-(methylsulfonamido)phenyl)-4-phenylthiophene-2-carboxamide] | 77.9 | 0.0432 | 5.91 |  |
| CS(=O)(=O)Nc1cccc(NC(=O)c2cc(-c3cccc(C(N)=O)c3)cs2)c1 [Example 50] | 66.5 | 0.0458 | > 30 |  |
| CS(=O)(=O)Nc1cccc(NC(=O)c2csc(-c3nnc[nH]3)n2)c1 [Example 33] | 65.4 | 1.02 | > 30 |  |
| Cn1nc(C(=O)Nc2cccc(NS(C)(=O)=O)c2)cc1-c1ccc(O)cc1 [Example 79] | 71.2 | 0.467 | > 30 |  |
| Cc1ccc(O)cc1-c1csc(C(=O)Nc2cccc(NS(C)(=O)=O)c2)c1 [Example 75] | 70.1 | 0.0821 | 8.28 |  |
| CC(=O)N1CCN(c2ccc(-c3csc(C(=O)Nc4cccc(NS(C)(=O)=O)c4)c3)nc2)CC1 [Example 95] | 73.1 | 0.0076 | > 30 |  |
| COc1cccc(-c2csc(C(=O)Nc3cccc(NS(C)(=O)=O)c3)c2)c1 [Example 56] | 68.2 | 0.148 | 21.4 |  |
| CCOc1ncc(-c2csc(C(=O)Nc3cccc(NS(C)(=O)=O)c3)c2)cn1 [Example 63] | 66.9 | 0.121 | 18.8 |  |
| CS(=O)(=O)Nc1cccc(NC(=O)c2cc(-c3ccccc3)c(C(F)(F)F)s2)c1 [Example 99, N-(3-(methylsulfonamido)phenyl)-4-phenyl-5-(trifluoromethyl)thiophene-2-carboxamide] | 35.8 | 0.716 | > 30 |  |
| Cc1cc(C(=O)Nc2cccc(NS(C)(=O)=O)c2)nn1Cc1ccccc1 [Example 154, 1-benzyl-N-(3-methanesulfonamidophenyl)-5-methyl-1H-pyrazole-3-carboxamide] | 68.4 | 3.89 |  |  |
| CS(=O)(=O)Nc1cccc(NC(=O)c2cc(C(=O)NCC3(O)CCCCC3)cs2)c1 [Example 105] | 70.3 | 0.21 |  |  |
| CS(=O)(=O)Nc1cccc(NC(=O)c2cccc(OCc3ccccc3)c2)c1 [Example 4] | 55.1 | 3.05 |  |  |

| Compound | DHX9 Biochemical Max Inhibition [1] [%] | IC50 [1, 3] [µM] | EC50 [2] [µM] | IC50 [1] [µM] |
| --- | --- | --- | --- | --- |
| Cc1nc(-c2cccc(NC(=O)c3csc(C(=O)Nc4cccc(NS(C)(=O)=O)c4)c3)c2)cs1 [Example 147] | 64.7 | 0.229 |  |  |
| CS(=O)(=O)Nc1cccc(NC(=O)c2cc(C(=O)NCCC3CC3)cs2)c1 [Example 162] | 68.5 | 0.0811 |  |  |
| CS(=O)(=O)Nc1cccc(NC(=O)c2cc(C(=O)NCc3ccc4[nH]ccc4c3)cs2)c1 [Example 145] | 67.7 | 0.105 |  |  |
| Cc1ccccc1-c1csc(C(=O)Nc2cccc(NS(C)(=O)=O)c2)c1 [Example 46] | 73.9 | 0.123 |  |  |
| CS(=O)(=O)Nc1cccc(NC(=O)c2ccc(-c3ccccc3)s2)c1 [Example 5] | 37.7 | 2.97 |  |  |
| COCc1cccc(NC(=O)c2csc(C(=O)Nc3cccc(NS(C)(=O)=O)c3)c2)c1 [Example 134] | 66.9 | 0.058 |  |  |
| Cc1ccccc1-c1nc(C(=O)Nc2cccc(NS(C)(=O)=O)c2)cs1 [Example 8] | 47.7 | 1.76 |  |  |
| CS(=O)(=O)Nc1cccc(NC(=O)c2cccc(-c3ccccc3)c2)c1 [Example 37] | 67 | 1.72 |  |  |
| CS(=O)(=O)Nc1cccc(NC(=O)c2ccc(S(=O)(=O)Nc3ccncc3)cc2)c1 [Example 27] | 63.8 | 1.61 |  |  |
| CS(=O)(=O)Nc1cccc(NC(=O)c2csc(S(=O)(=O)N3CCOCC3)c2)c1 [Example 30] | 69.1 | 34.1 |  |  |
| CS(=O)(=O)Nc1cccc(NC(=O)c2cc(C(=O)Nc3ccccc3CCO)cs2)c1 [Example 143] | 73.3 | 0.0915 |  |  |
| CS(=O)(=O)Nc1cccc(NC(=O)c2cc(C(=O)NCCc3c[nH]c4ccccc34)cs2)c1 [Example 140] | 70.1 | 0.189 |  |  |
| CS(=O)(=O)Nc1cccc(NC(=O)c2cc(C(=O)NCc3nc4ccccc4[nH]3)cs2)c1 [Example 141] | 66.3 | 0.0926 |  |  |
| Cc1ccc(C)n1-c1sccc1C(=O)Nc1cccc(NS(C)(=O)=O)c1 [Example 26] | 60.6 | 56.9 |  |  |
| CC(C)(C)NC(=O)c1ccc(NC(=O)c2csc(C(=O)Nc3cccc(NS(C)(=O)=O)c3)c2)cc1 [Example 127] | 68.3 | 0.115 |  |  |
| CS(=O)(=O)Nc1cccc(NC(=O)c2cc(C(=O)Nc3ccc(Oc4ccccc4)cc3)cs2)c1 [Example 117] | 52.7 | 0.686 |  |  |
| CNC(=O)c1ccc(NC(=O)c2csc(C(=O)Nc3cccc(NS(C)(=O)=O)c3)c2)cc1 [Example 139] | 68.9 | 0.0405 |  |  |
| CC(C)Oc1ccc(NC(=O)c2csc(C(=O)Nc3cccc(NS(C)(=O)=O)c3)c2)cc1 [Example 118] | 66.2 | 0.0994 |  |  |
| COc1cccc(-c2csc(C(=O)Nc3cccc(NS(C)(=O)=O)c3)c2)c1C [Example 67] | 70.1 | 0.98 |  |  |
| CS(=O)(=O)Nc1cccc(NC(=O)c2csc(N3CCCCC3)n2)c1 [Example 19] | 49.6 | 6.33 |  |  |
| CS(=O)(=O)Nc1cccc(NC(=O)c2cnn(Cc3ccccc3)c2)c1 [Example 35, 1-benzyl-N-(3-methanesulfonamidophenyl)pyrazole-4-carboxamide] | 69.3 | 1.49 |  |  |
| COc1ccc(OC)c(CCNC(=O)c2csc(C(=O)Nc3cccc(NS(C)(=O)=O)c3)c2)c1 [Example 142] | 72.6 | 0.167 |  |  |
| CS(=O)(=O)Nc1cccc(NC(=O)c2ccc(-n3cccn3)cc2)c1 [Example 39] | 55.3 | 0.994 |  |  |
| CS(=O)(=O)Nc1cccc(NC(=O)c2cc(C(=O)Nc3cccc4c3CCO4)cs2)c1 [Example 123] | 68.3 | 0.0592 |  |  |
| CS(=O)(=O)Nc1cccc(NC(=O)c2cc(-c3ccccc3)ccn2)c1 [Example 2] | 50.4 | 7.27 |  |  |
| CS(=O)(=O)Nc1cccc(NC(=O)c2cc(C(=O)Nc3cnc4ccccn34)cs2)c1 [Example 129] | 67.2 | 0.0889 |  |  |
